Tests used:
[1] = test system: human leukemia cells K562; experiment: Cell viability assay, human leukemia cells K562; type: cell-based; details: 5000 cells per well, 96-well plate, 48 hours with compound, mean of repeats
Method: (§1) Specific experimental operations: 5000 human leukemia cells K562 and human lung cancer cells A549 are seeded into 96-well cell culture plates respectively to grow for 24 hours. Then, a predetermined concentration of the above synthesized compounds are added respectively, wherein the antitumor drug cisplatin is used as a control for 48 hours. The mean 50% inhibitory concentration (IC50) of all compounds is then determined. Each concentration is repeated at least three times, and all experiments are repeated three times, and the average results obtained are shown in Table 1.

[2] = test system: human lung cancer cells A549; experiment: Cell viability assay, human lung cancer cells A549; type: cell-based; details: 5000 cells per well, 96-well plate, 48 hours with compound, mean of repeats
Method: as §1

SMILES	IC50 [1]	IC50 [2]	IC50 ([1]; Homo sapiens, K562, 48 h)	IC50 ([2]; Homo sapiens, A549, 48 h)
N.N.[Cl][Pt][Cl] [Cisplatin, cisplatin, reference compound]	20.3 µM	24 µM		
C[C@@]12S[C@@](c3ccccc3)(NC1=O)[C@]1([N+](=O)[O-])Oc3ccccc3[C@H]21 [I-aa]			12.4 µM	28.2 µM
C[C@@]12S[C@@](c3ccccc3F)(NC1=O)[C@]1([N+](=O)[O-])Oc3ccccc3[C@H]21 [I-ab]			52.2 µM	57 µM
C[C@@]12S[C@@](c3ccc(F)cc3)(NC1=O)[C@]1([N+](=O)[O-])Oc3ccccc3[C@H]21 [I-ac]			74.6 µM	58.2 µM
C[C@@]12S[C@@](c3ccc(Cl)cc3)(NC1=O)[C@]1([N+](=O)[O-])Oc3ccccc3[C@H]21 [I-ad]			50.2 µM	40 µM
C[C@@]12S[C@@](c3ccc(Br)cc3)(NC1=O)[C@]1([N+](=O)[O-])Oc3ccccc3[C@H]21 [I-ae]			54.7 µM	45.5 µM
C[C@@]12S[C@@](c3cccc(Br)c3F)(NC1=O)[C@]1([N+](=O)[O-])Oc3ccccc3[C@H]21 [I-af]			46.4 µM	39.5 µM
C[C@@]12S[C@@](c3cccc(Br)c3F)(NC1=O)[C@]1([N+](=O)[O-])Oc3ccccc3[C@H]21 [I-ag]	30.2 µM	44.6 µM		
C[C@@]12S[C@@](c3ccc4ccccc4n3)(NC1=O)[C@]1([N+](=O)[O-])Oc3ccccc3[C@H]21 [I-ah]			59.4 µM	20.5 µM
C[C@@]12S[C@@](c3ccccn3)(NC1=O)[C@]1([N+](=O)[O-])Oc3ccccc3[C@H]21 [I-ai]			32.3 µM	23.9 µM
C[C@@]12S[C@@](c3ccccc3)(NC1=O)[C@]1([N+](=O)[O-])Oc3ccc(F)cc3[C@H]21 [I-ba]			13 µM	32.6 µM
C[C@@]12S[C@@](c3ccccc3)(NC1=O)[C@]1([N+](=O)[O-])Oc3c(F)cccc3[C@H]21 [I-ca]			19 µM	57.7 µM
C[C@@]12S[C@@](c3ccccc3)(NC1=O)[C@]1([N+](=O)[O-])Oc3cccc(Cl)c3[C@H]21 [I-da]			10.3 µM	34.3 µM
C[C@@]12S[C@@](c3ccccc3)(NC1=O)[C@]1([N+](=O)[O-])Oc3ccc(Cl)cc3[C@H]21 [I-ea]			21.4 µM	45.3 µM
C[C@@]12S[C@@](c3ccccc3)(NC1=O)[C@]1([N+](=O)[O-])Oc3ccc(Br)cc3[C@H]21 [I-fa]			30.9 µM	67.6 µM
C[C@@]12S[C@@](c3ccccc3)(NC1=O)[C@]1([N+](=O)[O-])Oc3cc(Br)ccc3[C@H]21 [I-ga]			7.09 µM	30.8 µM
C[C@@]12S[C@@](c3ccccc3)(NC1=O)[C@]1([N+](=O)[O-])Oc3ccc([N+](=O)[O-])cc3[C@H]21 [I-ha]			22.3 µM	67.3 µM
Cc1ccc2c(c1)O[C@]1([N+](=O)[O-])[C@H]2[C@]2(C)S[C@@]1(c1ccccc1)NC2=O [I-ia]			14.5 µM	33.3 µM
COc1ccc2c(c1)O[C@]1([N+](=O)[O-])[C@H]2[C@]2(C)S[C@@]1(c1ccccc1)NC2=O [I-ja]			2.6 µM	4.83 µM
CC(C)(C)c1ccc2c(c1)[C@@H]1[C@]3(C)S[C@@](c4ccccc4)(NC3=O)[C@]1([N+](=O)[O-])O2 [I-ka]			29.6 µM	33 µM
COc1cc(Br)cc2c1O[C@]1([N+](=O)[O-])[C@H]2[C@]2(C)S[C@@]1(c1ccccc1)NC2=O [I-la]			3.1 µM	15.6 µM

From patent US12162897B2, “1,4-sulfur-bridged polycyclic compounds containing dihydrobenzofuran structure, its preparation method and application thereof” (Chengdu University, priority 2021, dated 2024)
